Assay [1] concerns panel of 8 trained people. In words: Sensory evaluation of taste properties (descriptive), samples in 4% w/w sucrose solution. The class given is in vivo. As to conditions: for Description (taste properties: sweet, licorice and sweet lingering): panel of 8 trained people. As to the method:
A composition comprising Compound I was generated according to the methods described in Example 1. The composition was dissolved in a 4% w/w sucrose solution, at a final concentration of 30 ppm. A panel of 8 trained people evaluated the test solution, as well as samples comprising rebaudioside A, rebaudioside D, or rebaudioside M for taste properties (sweet, licorice and sweet lingering).

In assay [2] the test system is panel of 8 trained people. In words: Sensory evaluation of taste properties on a scale of −5 to 5 versus 4% w/w sucrose reference solution. The class given is in vivo. As to conditions: for Licorice / Sweet / Sweet Lingering: 30 ppm in 4% w/w sucrose solution, scale −5 to 5 (−5 no effect, 5 extremely strong effect, 0 = 4% w/w sucrose reference); for tastes enhanced in the 4% sucrose base: 30 ppm in 4% sucrose base. The method, then:
In another experiment, a composition comprising compound of formula I was generated according to the methods described in Example 1. The composition was dissolved in a 4% w/w sucrose solution. A panel of 8 trained people evaluated the test solutions for taste properties (sweet, licorice and sweet lingering) on a scale of −5 to 5 (−5 denoted no effect and 5 denoted extremely strong effect, 0 being the intensity of a reference water solution containing either (i) 4% w/w sucrose solution. The results are shown in the table below.

[3] abbreviates: 30 ppm in 4% w/w sucrose solution.

Regarding `C=C1C[C@@]23CC[C@H]4[C@@](C)(CCC[C@@]4(C)C(=O)O[C@@H]4OC(CO[C@@H]5OC(CO)[C@@H](O)C(O)C5O)[C@@H](O)C(O)C4O)[C@@H]2CC[C@]1(O[C@@H]1OC(CO)[C@@H](O)C(O[C@@H]2OC(CO)[C@@H](O)C(O)C2O)C1O[C@@H]1OC(CO)[C@@H](O)C(O)C1O)C3` (some centres unmarked) [Compound I], in assay [1] (setting [3]), the “Description (taste properties: sweet, licorice and sweet lingering)” value (“Description” below) was “Sweet, licorice, lingering”. In addition, in assay [2], the Licorice worked out at 1.4, the Sweet came out at 1.1 and the “Sweet Lingering” value came to 0.4. Besides, the “effect for licorice and sweet lingering tastes” value in assay [2] (dosage of 30 ppm in 4% sucrose base) was “without any significant effect”. Also, the “effect on sweet intensity in the 4% sucrose base” value in assay [2] (dosage of 30 ppm, 95% of confidence level) was “significantly enhanced”.

For the molecule `C=C1C[C@@]23CC[C@H]4[C@@](C)(CCC[C@@]4(C)C(=O)O[C@@H]4O[C@H](CO)[C@@H](O)[C@H](O)[C@H]4O)[C@@H]2CC[C@]1(O[C@@H]1O[C@H](CO)[C@@H](O)[C@H](O[C@@H]2O[C@H](CO)[C@@H](O)[C@H](O)[C@H]2O)[C@H]1O[C@@H]1O[C@H](CO)[C@@H](O)[C@H](O)[C@H]1O)C3` [Reb A, rebaudioside A], in assay [1] (setting [3]), the “Description” value was “Sweet, licorice, lingering, slightly”. Further, in assay [2], the “tastes enhanced in the 4% sucrose base” value was “enhancing sweet and sweet lingering tastes”; the Licorice was 1.3; the Sweet worked out at 1.5; the “Sweet Lingering” value turned out to be 0.5.

`C=C1C[C@@]23CC[C@H]4[C@@](C)(CCC[C@@]4(C)C(=O)O[C@@H]4O[C@H](CO)[C@@H](O)[C@H](O)[C@H]4O[C@@H]4O[C@H](CO)[C@@H](O)[C@H](O)[C@H]4O)[C@@H]2CC[C@]1(O[C@@H]1O[C@H](CO)[C@@H](O)[C@H](O[C@@H]2O[C@H](CO)[C@@H](O)[C@H](O)[C@H]2O)[C@H]1O[C@@H]1O[C@H](CO)[C@@H](O)[C@H](O)[C@H]1O)C3` [Reb D, rebaudioside D]: the “Description” value in assay [1] (setting [3]) is “Sweet, lingering, licorice”. For the same molecule, in assay [2], the Licorice amounted to 1.3, the Sweet came out at 1.5 and the “Sweet Lingering” value came to 0.4.

With `C=C1C[C@@]23CC[C@H]4[C@@](C)(CCC[C@@]4(C)C(=O)O[C@@H]4O[C@H](CO)[C@@H](O)[C@H](O[C@@H]5O[C@H](CO)[C@@H](O)[C@H](O)[C@H]5O)[C@H]4O[C@@H]4O[C@H](CO)[C@@H](O)[C@H](O)[C@H]4O)[C@@H]2CC[C@]1(O[C@@H]1O[C@H](CO)[C@@H](O)[C@H](O[C@@H]2O[C@H](CO)[C@@H](O)[C@H](O)[C@H]2O)[C@H]1O[C@@H]1O[C@H](CO)[C@@H](O)[C@H](O)[C@H]1O)C3` [Reb M, rebaudioside M], in assay [1] (setting [3]), the “licorice taste compared to the other samples” value is “stronger licorice taste”; the “Description” value was “Licorice, sweet, lingering”. In addition, in assay [2], the “tastes enhanced in the 4% sucrose base” value is “enhancing all sweet, licorice and sweet lingering tastes”; the Licorice is listed as 1.3; the Sweet is on record as 1.6; the “Sweet Lingering” value was found to be 0.8.

As for `OC[C@H]1O[C@@](CO)(O[C@H]2O[C@H](CO)[C@@H](O)[C@H](O)[C@H]2O)[C@@H](O)[C@@H]1O` [Sucrose, sucrose], in assay [1] (setting [3]), the “Description” value is reported as “Sweet, slightly lingering”. For the same molecule, the “lingering taste compared to the others” value in assay [1] (30 ppm test samples in 4% w/w sucrose solution) is on record as “weaker lingering taste than others”.

For the origin of these results see US11976091B2, “Terpene glycoside derivatives and uses thereof” (Firmenich SA, priority 2018, dated 2024).
